Among the data in patent US9499502B2, “5-substituted iminothiazines and their mono- and dioxides as BACE inhibitors, compositions, and their use” (Merck Sharp & Dohme Corp., priority 2011, dated 2016) are Ki and inhibition values, retold here.

SMILES strings stand for the structures.

The first experiment deals with soluble human BACE1 catalytic domain (Homo sapiens (Human), UniProt P56817). The experiment is described as follows: BACE1 HTRF FRET Assay. The following applies: BACE1 Ki (nM).
soluble human BACE1 catalytic domain, sequence (P56817 75-416): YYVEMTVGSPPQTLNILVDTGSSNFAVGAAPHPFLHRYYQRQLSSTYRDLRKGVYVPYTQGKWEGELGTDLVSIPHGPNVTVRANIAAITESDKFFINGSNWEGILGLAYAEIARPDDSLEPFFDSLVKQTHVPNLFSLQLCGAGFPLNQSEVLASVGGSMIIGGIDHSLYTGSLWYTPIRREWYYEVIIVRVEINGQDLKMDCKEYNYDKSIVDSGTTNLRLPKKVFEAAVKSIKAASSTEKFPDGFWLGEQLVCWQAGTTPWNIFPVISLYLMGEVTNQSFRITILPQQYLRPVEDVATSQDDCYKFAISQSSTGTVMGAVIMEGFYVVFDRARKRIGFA
The compound `Cc1nc2cc(CC3(C)C(=N)N[C@](C)(c4cc(F)ccc4F)CS3(=O)=O)ccc2o1` (single isomer, unassigned) [Example 32a-a] yielded a Ki of 3860 nM.

Still in this experiment, the particulars now being: read-out: BACE1 Ki.
As to `C[C@]1(CC2CCOCC2)C(=N)N[C@](C)(c2sc(-c3cncc(C#N)c3)cc2Cl)CS1(=O)=O` [Example 27bw], the Ki stood at 163 nM. As to `C[C@@]1(c2ccccn2)C(=N)N[C@](C)(c2sc(-c3cccc(C#N)c3)cc2F)CS1(=O)=O` [Example 27bo-b], the Ki was found to be 2720 nM. `C[C@@]1(c2sc(-c3nnc(-c4ccc(Cl)cc4)o3)cc2F)CS(=O)(=O)[C@](C)(CC(F)(F)F)C(=N)N1` [Example 27by-b]: the Ki came out at 450 nM. Same read-out and setting: under `C[C@@]1(c2sc(-c3cccc(-c4nnco4)c3)cc2F)CS(=O)(=O)[C@](C)(CC(F)(F)F)C(=N)N1` [Example 27bk-b] stands 106 nM; under `C[C@@]1(c2sc(-c3cccc(-c4nnco4)c3)cc2F)CS(=O)(=O)[C@@](C)(c2ccccn2)C(=N)N1` [Example 27bp-a], 17.8 nM. `Cc1nnc(-c2cccc(-c3cc(F)c([C@]4(C)CS(=O)(=O)C(C)(C)C(=N)N4)s3)c2)o1` [Example 27ay]: the Ki turned out to be 480 nM.

With `CC1(C)C(=N)N[C@](C)(c2sc(-c3csc4ccccc34)cc2Cl)CS1(=O)=O` [Example 27g], the inhibitory constant (Ki) was 2030 nM.

Take `C[C@@]1(c2sc(-c3nnc(-c4ccc(Cl)cc4)o3)cc2F)CS(=O)(=O)[C@@](C)(c2ccccn2)C(=N)N1` [Example 27bz-a]: the Ki was found to be 51 nM.

With `CC1(C)C(=N)N[C@](C)(c2sc(-c3cccc(OC(F)F)c3)cc2Cl)CS1(=O)=O` [Example 27o], the Ki was found to be 66.6 nM. On the same count and under the same terms, under `C[C@@]1(c2ccccn2)C(=N)N[C@](C)(c2sc(-c3cccc(-c4nnco4)c3)cc2F)CS1(=O)=O` [Example 27bp-b] stands 396 nM. As for `C[C@@]1(c2ccccc2F)C(=N)N[C@](C)(c2sc(-c3cccc(C#N)c3)cc2F)CS1(=O)=O` [Example 27bs-b], the Ki amounted to 3170 nM.

As to `COc1cccc(-c2ccc3nc([C@]4(C)CS(=O)(=O)C(C)(C)C(=N)N4)sc3c2)c1` [Example 29d], the Ki was determined as 2840 nM.

For the compound `COc1cccc2nc(-c3cc(Cl)c([C@]4(C)CS(=O)(=O)C(C)(C)C(=N)N4)s3)cn12` [Example 28c], the Ki was found to be 108 nM. Turning to `CC1(C)C(=N)N[C@](C)(c2sc(-c3cccc(-c4nnco4)c3)cc2F)CS1(=O)=O` [Example 27ar], the Ki was 11 nM. Still for that read-out and setting: the figure for `C[C@@]1(c2ccc(F)cc2F)CS(=O)(=O)[C@](C)(Cc2cccc(Br)c2)C(=N)N1` [Example 32j-b] is 1270 nM; for `C[C@]1(CC(F)(F)F)C(=N)N[C@](C)(c2sc(-c3nnc(-c4ccc(Cl)cc4)o3)cc2F)CS1(=O)=O` [Example 27by-a] it is 29.5 nM; for `Cc1noc(-c2cccc(-c3cc(F)c([C@]4(C)CS(=O)(=O)C(C)(C)C(=N)N4)s3)c2)n1` [Example 27aw] it is 125 nM. `CC1(C)C(=N)N[C@](C)(c2sc(-c3ccc(F)c(C#N)c3)cc2Cl)CS1(=O)=O` [Example 27j]: the Ki was found to be 5150 nM.

Take `COc1cc(-c2cc(Cl)c([C@]3(C)CS(=O)(=O)C(C)(C)C(=N)N3)s2)ccn1` [Example 27k]: the Ki is 926 nM. For the compound `C[C@]1(Cc2cccc(Br)c2)C(=N)N[C@](C)(c2ccc(F)cc2F)CS1(=O)=O` [Example 32j-a], the Ki is 2100 nM.

In the case of `CC1(C)C(=N)N[C@](C)(c2sc(-c3ccn4ncnc4c3)cc2Cl)CS1(=O)=O` [Example 27n], the Ki came to 273 nM.

`CC1(C)C(=N)N[C@](C)(c2sc(-c3cc4ccccc4s3)cc2Cl)CS1(=O)=O` [Example 27f]: the Ki was 1180 nM.

The experiment is the same for the next values; noted with them: read-out: BACE1 Ki; Ki calculated from IC50 using the Cheng-Prusoff equation.
As for `COc1ccc(C(=O)Nc2ccc(F)c([C@]3(C)CS(=O)(=O)C(C)(C)C(=N)N3)n2)nc1` [Example 9ce], the Ki is 55.1 nM. For `CC1(C)C(=N)N[C@](C)(c2cc(NC(=O)c3cnc(C(F)(F)F)cn3)ccc2F)CS1(=O)=O` [Example 9e], the Ki is 0.7 nM. The same measure, in the same setting: the figure for `CC1(C)C(=N)N[C@](C)(c2sc(C(=O)NCc3ccc4cnccc4c3)cc2Cl)CS1(=O)=O` [Example 22d] is 4630 nM. With `CC1(C)C(=N)N[C@](C)(c2sc(-c3cccc(-c4ccno4)c3)cc2Cl)CS1(=O)=O` [Example 27d], the Ki was 64.3 nM. `CC1(C)C(=N)N[C@](C)(c2sc(-c3cncc(-c4ncco4)c3)cc2Cl)CS1(=O)=O` [Example 27ad]: the Ki is 44.4 nM. Consider `CC1(C)C(=N)N[C@](C)(c2sc(C(=O)Nc3cccc(C(F)(F)F)n3)cc2Cl)CS1(=O)=O` [Example 22], for which the Ki was 175 nM. Regarding `CC1(C)C(=N)N[C@](C)(c2sc(C(=O)NCc3ccc(Cl)cc3)cc2Cl)CS1(=O)=O` [Example 22k], the Ki is 863 nM. With `C[C@@]1(c2cc(NC(=O)c3ccc(F)cn3)ccc2F)CS(=O)(=O)[C@](C)(CC2CC2)C(=N)N1` [Example 9dh-b], the Ki is 47.4 nM. As for `CC1(C)C(=N)N[C@](C)(c2cc(NC(=O)CC(F)(F)F)ccc2F)CS1(=O)=O` [Example 9ag], the Ki was 663 nM. With `Cc1nc(C(=O)Nc2ccc(F)c([C@]3(C)CS(=O)(=O)C(C)(C)C(=N)N3)c2)no1` [Example 9g], the Ki is 1.9 nM.

For the compound `C[C@@]1(c2cc(NC(=O)c3ccc(F)cn3)ccc2F)CS(=O)(=O)[C@@](C)(c2ccccn2)C(=N)N1` [Example 9cv-a], the Ki is 7.8 nM. On to `C=CC[C@@]1(C)C(=N)N[C@](C)(c2cc(NC(=O)c3cnc(OC)cn3)ccc2F)CS1(=O)=O` [Example 9dm-a], for which the Ki was 4 nM. Consider `C[C@@]1(c2cc(NC(=O)c3ccc(C(F)(F)F)cn3)ccc2F)CS(=O)(=O)[C@@](C)(c2cccc(F)c2)C(=N)N1` [Example 9de-a], for which the Ki was 3.5 nM. For `CC1(C)C(=N)N[C@](C)(c2cc(NC(=O)c3cnc(C(F)F)cn3)ccc2F)CS1(=O)=O` [Example 9q], the Ki is 3.6 nM. Take `C[C@@]1(c2cc(NC(=O)c3ccc(F)cn3)ccc2F)CS(=O)(=O)[C@@](C)(c2ccc(F)cc2)C(=N)N1` [Example 9df-a]: the Ki was 2.3 nM. In the case of `COc1ccc(C(=O)Nc2ccc(F)c([C@]3(C)CS(=O)(=O)[C@@](C)(C(C)C)C(=N)N3)c2)nc1` [Example 9eb-a], the Ki is 16.5 nM. As to `C[C@]1(CC2CCOCC2)C(=N)N[C@](C)(c2cc(NC(=O)c3ccc(F)cn3)ccc2F)CS1(=O)=O` [Example 9cr-a], the Ki is 2.1 nM. In the case of `COc1ccc(C(=O)Nc2ccc(F)c([C@]3(C)CS(=O)(=O)[C@@](C)(C4CCOCC4)C(=N)N3)c2)nc1` [Example 9dt-a], the Ki was 3 nM.

`CC1(C)C(=N)N[C@](C)(c2sc(C(=O)NCc3ncccc3Cl)cc2Cl)CS1(=O)=O` [Example 22a]: the inhibition constant (Ki) is 1400 nM. Consider `CC1(C)C(=N)N[C@](C)(c2cc(NC(=O)[C@H]3CCCO3)ccc2F)CS1(=O)=O` [Example 9al], for which the Ki was 172 nM. With `COc1cnc(C(=O)Nc2ccc(F)c([C@]3(C)CS(=O)(=O)C(C)(C)C(=N)N3)c2)c(F)c1` [Example 9d], the inhibitory constant (Ki) was 5.4 nM. As for `COc1cnc(C(=O)Nc2ccc(F)c([C@]3(C)CS(=O)(=O)[C@@](C)(CC4CC4)C(=N)N3)c2)cn1` [Example 9dk-a], the Ki is 7 nM.

For `COc1ccc(C(=O)Nc2ccc(F)c([C@]3(C)CS(=O)(=O)[C@@](C)(CC4CC4)C(=N)N3)c2)nc1` [Example 9dj-a], the Ki was 4.3 nM.

As for `Cc1ccc(CNC(=O)c2cc(Cl)c([C@]3(C)CS(=O)(=O)C(C)(C)C(=N)N3)s2)nn1` [Example 22e], the Ki is 759 nM.

Regarding `CC1(C)C(=N)N[C@](C)(c2cc(NC(=O)c3ccc(Cl)cn3)cc(F)c2F)CS1(=O)=O` [Example 9l], the inhibition constant Ki was 4.3 nM. For the compound `CC1(C)C(=N)N[C@](C)(c2sc(-c3cc(F)cc(-c4nnco4)c3)cc2Cl)CS1(=O)=O` [Example 27ab], the Ki was 15.4 nM.

In the case of `CC1(C(=O)Nc2cc(F)c(F)c([C@]3(C)CS(=O)(=O)C(C)(C)C(=N)N3)c2)COC1` [Example 9bp], the Ki was 1150 nM.

`COc1ccc(C(=O)Nc2cc(Cl)c(F)c([C@]3(C)CS(=O)(=O)C(C)(C)C(=N)N3)c2)nc1` [Example 9u]: the Ki was 5.8 nM. As for `CC[C@@]1(C)C(=N)N[C@](C)(c2cc(NC(=O)c3ccc(OC)cn3)ccc2F)CS1(=O)=O` [Example 9cm-a], the Ki is 5.6 nM. In the case of `CC1(C)C(=N)N[C@](C)(c2sc(C(=O)NCc3ccccc3Cl)cc2Cl)CS1(=O)=O` [Example 22h], the Ki is 1620 nM.

Take `CC1(C)C(=N)N[C@](C)(c2sc(C(=O)NCc3ncc(F)cc3Cl)cc2Cl)CS1(=O)=O` [Example 22o]: the Ki was 1180 nM. With `COCC(=O)Nc1ccc(F)c([C@]2(C)CS(=O)(=O)[C@@](C)(c3cccc(C(F)(F)F)c3)C(=N)N2)c1` [Example 9cp-a], the inhibition constant Ki was 18 nM. On the same count and under the same terms, the figure for `CC1(C)C(=N)N[C@](C)(c2sc(C(=O)NCc3cnsn3)cc2Cl)CS1(=O)=O` [Example 22r] is 186 nM; for `CC1(C)C(=N)N[C@](C)(c2cc(NC(=O)CC3CC3)cc(F)c2F)CS1(=O)=O` [Example 9bv] it is 1340 nM. Turning to `CC1(C(=O)Nc2ccc(F)c([C@]3(C)CS(=O)(=O)C(C)(C)C(=N)N3)c2)COC1` [Example 9af], the inhibitory constant (Ki) is 739 nM. For the compound `CC1(C)C(=N)N[C@](C)(c2sc(C(=O)NCc3ccc(F)cc3)cc2Cl)CS1(=O)=O` [Example 22j], the Ki is 753 nM.

Staying with this experiment, now noted: read-out: BACE1 inhibition, % Inh. at 10 μM, at 10 μM.
`C[C@@]1(c2ccccn2)C(=N)N[C@](C)(c2sc(Br)cc2F)CS1(=O)=O` [Entry 86]: the inhibition at 10 µM is 44%. For `COc1cccc([C@]2(C)C(=N)N[C@](C)(c3ccc(F)cc3F)CS2(=O)=O)c1` [Example 32f-b], the inhibition at 10 µM came out at 30%.

The experiment is the same for the next values; noted with them: read-out: BACE1 inhibition, Ki.
With `C[C@]1(CC2CCOCC2)C(=N)N[C@](C)(c2cc(N)ccc2F)CS1(=O)=O` [Entry 53], the Ki is 1300 nM. Take `CC(C)[C@]1(C)C(=N)N[C@](C)(c2cc(N)ccc2F)CS1(=O)=O` [Entry 28]: the Ki amounted to 7300 nM.

As to `C[C@@]1(c2sc(Br)cc2F)CS(=O)(=O)[C@@](C)(c2cccc(F)c2)C(=N)N1` [Entry 87], the Ki amounted to 600 nM. For `CC1(C)C(=N)N[C@](C)(c2c(F)ccc(N)c2F)CS1(=O)=O` [Entry 13], the Ki turned out to be 3600 nM.
